Laboratory results: US20100286284A1, “5-[1'-(DECAHYDRO-7-HYDROXY-1,1,3A,7-TETRAMETHYL-1H-CYCLOPROPA[A]NAPHTHALEN-4-YL)-3'-METHYLBUTYL]-2,4,6-TRIHYDROXY-1,3-BENZENEDICARBOXALDEHYDE AS MEDICAMENTS” (Pierre Fabre Medicament, priority 2008, published 2010)

What was measured:
Assay type in all cases: biochemical
[1] = tested on: Dopamine reuptake; experiment: Reuptake of dopamine (DA), [3H]-DA uptake in synapses of rat striatum; settings: in vitro, 15 min at 37° C.
Experimental: (§1) The uptake tests were carried out in vitro on rat synapses.
(§2) Following incubation, the samples are rapidly filtered in vacuo through glass fibre filters (GB/B, Packard) and rinsed twice with ice-cold incubation buffer to eliminate free [^3H]-dopamine. The filters are dried and the radioactivity retained is measured by a scintillation counter (Topcount, Packard) using a scintillation cocktail (Microscint O, Packard).
(§3) The results are expressed as a percentage inhibition of the reuptake of the neurotransmitter evaluated.

[2] = tested on: Noradrenaline reuptake; experiment: Reuptake of noradrenaline (NE), [3H]-NE uptake in synapses of rat hypothalamus; settings: in vitro, 20 min at 37° C.
Experimental: as §1
The basal activity is determined by incubating the same mixture for 20 min at 37° C. in the presence of 10 μM of protriptyline to block the reuptake.
as §2, with “[^3H]-NE.” for “[^3H]-dopamine.”
as §3

[3] = tested on: Serotonin reuptake; experiment: Reuptake of serotonin (5-HT), [3H]-serotonin uptake in rat brain synapses; settings: in vitro, synapses from rats' brains, 15 min at 37° C.
Experimental: as §1
The basal activity is determined by incubating the same mixture for 15 min at 37° C. in the presence of 10 μM imipramine to block the reuptake.
as §2, with “[^3H]-serotonin.” for “[^3H]-dopamine.”
as §3

| Compound | IC50 Dopamine reuptake [1] | IC50 Noradrenaline reuptake [2] | IC50 Serotonin reuptake [3] |
| --- | --- | --- | --- |
| CC(C)C[C@@H](c1c(O)c(C=O)c(O)c(C=O)c1O)[C@@H]1CC[C@@](C)(O)[C@@H]2[C@@H]3C(CC[C@]21C)C3(C)C (stereo partly drawn) [Macrocarpal L] | 1.0 μg/ml of solution | 3.1 μg/ml of solution | 1.8 μg/ml of solution |
| Hyperforin | 0.23 μg/ml of solution | 0.79 μg/ml of solution | 0.89 μg/ml of solution |
